Earlier results, collected in patent US20200261400A1, “METHOD FOR LONG-TERM TREATMENT OF ROSACEA” (Sol-Gel Technologies Ltd., priority 2019, published 2020).

Tested on: rosacea lesions
Conditions: BPO as the sole active agent

In the case of `O=C(OOC(=O)c1ccccc1)c1ccccc1` [BPO, Benzoyl peroxide], the response of lesions is given as “unresponsive”.
